Tests used:
[1] = tested on: human lung cancer strain NCI-H441; format: cell-based
In short: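 Proliferation was scored by […] measured after the reagent was added to cultures kept at 37°C in 5% carbon dioxide.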

[2] = molecular target: GDP-bound NRAS wild-type protein (Homo sapiens, UniProt P01111); test: Binding to NRAS by surface plasmon resonance (SPR), KD and KD ratio to KRAS; details: ratio of KD value for GDP-bound NRAS wild-type protein to KD value for KRAS (SPR)
In short: (§1)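 SPR, 30°C: Avi-biotin RAS·GDP captured via Biotin CAPture (~100–300 RU); running buffer HBS pH 7.4, 1 mM DTT, 10 mM MgCl2, 0.01% Tween 20, 10 µM GDP, 4% DMSO. Single-cycle kinetics, 100 µL/min, 75 s injections; 1:1 model → KD.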

HRAS wild-type protein = HRAS wild-type protein (Homo sapiens, UniProt P01112); test: Binding to HRAS by surface plasmon resonance (SPR), KD and KD ratio to KRAS; details: ratio of KD value for HRAS wild-type protein to KD value for KRAS (SPR)
Sequence of HRAS wild-type protein (P01112 whole entry): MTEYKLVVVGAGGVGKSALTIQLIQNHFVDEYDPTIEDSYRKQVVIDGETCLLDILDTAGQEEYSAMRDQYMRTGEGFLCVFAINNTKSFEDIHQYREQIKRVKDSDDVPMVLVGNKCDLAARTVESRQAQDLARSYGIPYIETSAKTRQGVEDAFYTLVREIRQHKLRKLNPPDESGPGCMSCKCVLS
In short: as §1

Sequence of GDP-bound NRAS wild-type protein (P01111 whole entry): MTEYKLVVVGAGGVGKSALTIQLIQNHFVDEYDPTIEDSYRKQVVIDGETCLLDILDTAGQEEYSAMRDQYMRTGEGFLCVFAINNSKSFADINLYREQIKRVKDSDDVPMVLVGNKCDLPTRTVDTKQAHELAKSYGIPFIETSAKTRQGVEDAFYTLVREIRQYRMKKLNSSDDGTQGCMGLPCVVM

Structure (SMILES)	IC50 [1]	NRAS /KRAS [2]	HRAS /KRAS (HRAS wild-type protein)
CCO[C@@H]1C[C@H]2C(=O)NC3(CC(C)(C)C3)C(=O)N(C)[C@@H](C3CCCC3)C(=O)N(C)[C@H](C(=O)N(C)CC)CC(=O)N(C)[C@@H](CC)C(=O)N[C@@H]([C@@H](C)CC)C(=O)N(C)CC(=O)N(C)[C@H]3C/C=C\CCN(C3=O)[C@@H](Cc3ccc(C)cc3)C(=O)N(C)CC(=O)N[C@@H](CCc3ccc(C(F)(F)F)c(OC)c3)C(=O)N2C1 [PP1872]	12.4 nM	A (a compound having 10 or more and less than 20 is denoted as A)	A (a compound having 10 or more and less than 20 is denoted as A)
CCO[C@@H]1C[C@H]2C(=O)NC3(CC(C)(C)C3)C(=O)N(C)[C@@H](C3CCCC3)C(=O)N(C)[C@H](C(=O)N(C)C)CC(=O)N(C)[C@@H](CC)C(=O)N[C@@H]([C@@H](C)CC)C(=O)N(C)CC(=O)N(C)[C@H]3C/C=C\CCN(C3=O)[C@@H](Cc3ccc(C)cc3)C(=O)N(C)CC(=O)N[C@@H](CCc3ccc(C(F)(F)F)c(OC)c3)C(=O)N2C1 [PP1873]	8.5 nM	A (a compound having 10 or more and less than 20 is denoted as A)	B (a compound having 3 or more and less than 10 is denoted as B)
CC[C@H](C)[C@@H]1NC(=O)[C@H](CC)N(C)C(=O)C[C@@H](C(=O)N(C)CC)N(C)C(=O)[C@H](C2CCCC2)N(C)C(=O)C2(CC(C)(C)C2)NC(=O)[C@@H]2C[C@H](C)CN2C(=O)[C@H](CCc2ccc(C(F)(F)F)c(Cl)c2)NC(=O)CN(C)C(=O)[C@H](Cc2ccc(C)cc2)N2CC/C=C\C[C@@H](C2=O)N(C)C(=O)CN(C)C1=O [PP1874]	9.9 nM	A (a compound having 10 or more and less than 20 is denoted as A)	A (a compound having 10 or more and less than 20 is denoted as A)
CC[C@H](C)[C@@H]1NC(=O)[C@H](CC)N(C)C(=O)C[C@@H](C(=O)N(C)CC)N(C)C(=O)[C@H](C2CCCC2)N(C)C(=O)C2(CC(C)(C)C2)NC(=O)[C@@H]2C[C@@H](C)CN2C(=O)[C@H](CCc2ccc(C(F)(F)F)c(Cl)c2)NC(=O)CN(C)C(=O)[C@H](Cc2ccc(C)cc2)N2CC/C=C\C[C@@H](C2=O)N(C)C(=O)CN(C)C1=O [PP1876]	23 nM	A (a compound having 10 or more and less than 20 is denoted as A)	A (a compound having 10 or more and less than 20 is denoted as A)
CCO[C@@H]1C[C@H]2C(=O)NC3(CC(C)(C)C3)C(=O)N(C)[C@@H](C3CCCC3)C(=O)N(C)[C@H](C(=O)N(C)CC)CC(=O)N(C)[C@@H](CC)C(=O)N[C@@H]([C@@H](C)CC)C(=O)N(C)CC(=O)N(C)[C@H]3C/C=C\CCN(C3=O)[C@@H](Cc3ccc(C)cc3)C(=O)N(C)CC(=O)N[C@@H](CCc3ccc(C(F)(F)F)c(Cl)c3)C(=O)N2C1 [PP1880]	15.6 nM	A (a compound having 10 or more and less than 20 is denoted as A)	B (a compound having 3 or more and less than 10 is denoted as B)
CCO[C@@H]1C[C@H]2C(=O)NC3(CC(C)(C)C3)C(=O)N(C)[C@@H](C3CCCC3)C(=O)N(C)[C@H](C(=O)N(CC)CC)CC(=O)N(C)[C@@H](CC)C(=O)N[C@@H]([C@@H](C)CC)C(=O)N(C)CC(=O)N(C)[C@H]3C/C=C\CCN(C3=O)[C@@H](Cc3ccc(C)cc3)C(=O)N(C)CC(=O)N[C@@H](CCc3ccc(C(F)(F)F)c(Cl)c3)C(=O)N2C1 [PP1883]	24 nM	A (a compound having 10 or more and less than 20 is denoted as A)	A (a compound having 10 or more and less than 20 is denoted as A)
CCO[C@@H]1C[C@H]2C(=O)NC3(CC(C)(C)C3)C(=O)N(C)[C@@H](C3CCCC3)C(=O)N(C)[C@H](C(=O)N(C)CC)CC(=O)N(C)[C@@H](CC)C(=O)N[C@@H]([C@@H](C)CC)C(=O)N(C)CC(=O)N(C)[C@H]3C/C=C\CCN(C3=O)[C@@H](Cc3ccc(C)cc3)C(=O)N(C)CC(=O)N[C@@H](CCc3cc(F)c(C(F)(F)F)c(F)c3)C(=O)N2C1 [PP1886]	1.9 nM	A (a compound having 10 or more and less than 20 is denoted as A)	B (a compound having 3 or more and less than 10 is denoted as B)

Second part, led by results:

IC50 [1]	Structure (SMILES)	NRAS /KRAS [2]	HRAS /KRAS (HRAS wild-type protein)
12.4 nM	CC[C@H](C)[C@@H]1NC(=O)[C@H](CC)N(C)C(=O)C[C@@H](C(=O)N(C)CC)N(C)C(=O)[C@H](C2CCCC2)N(C)C(=O)C2(CC(C)(C)C2)NC(=O)[C@@H]2C[C@@H](C)CN2C(=O)[C@H](CCc2ccc(C(F)(F)F)c(OC)c2)NC(=O)CN(C)C(=O)[C@H](Cc2ccc(C)cc2)N2CC/C=C\C[C@@H](C2=O)N(C)C(=O)CN(C)C1=O [PP1870]	A (a compound having 10 or more and less than 20 is denoted as A)	A (a compound having 10 or more and less than 20 is denoted as A)
13.1 nM	CCC[C@H]1C(=O)N[C@@H]([C@@H](C)CC)C(=O)N(C)CC(=O)N(C)[C@H]2C/C=C\CCN(C2=O)[C@@H](Cc2ccc(C)cc2)C(=O)N(C)CC(=O)N[C@@H](CCc2ccc(C(F)(F)F)c(OC)c2)C(=O)N2C[C@H](OCC)C[C@H]2C(=O)NC2(CCC2)C(=O)N(C)[C@@H](C2CCCC2)C(=O)N(C)[C@H](C(=O)N(C)C)CC(=O)N1C [PP1871]	A (a compound having 10 or more and less than 20 is denoted as A)	A (a compound having 10 or more and less than 20 is denoted as A)
16.9 nM	CCO[C@@H]1C[C@H]2C(=O)NC3(CCC3)C(=O)N(C)[C@@H](C3CCCC3)C(=O)N(C)[C@H](C(=O)N(C)CC)CC(=O)N(C)[C@@H](CC3CC3)C(=O)N[C@@H]([C@@H](C)CC)C(=O)N(C)CC(=O)N(C)[C@H]3C/C=C\CCN(C3=O)[C@@H](Cc3ccc(C)cc3)C(=O)N(C)CC(=O)N[C@@H](CCc3ccc(C(F)(F)F)c(OC)c3)C(=O)N2C1 [PP1879]	A (a compound having 10 or more and less than 20 is denoted as A)	B (a compound having 3 or more and less than 10 is denoted as B)
16.7 nM	CCO[C@@H]1C[C@H]2C(=O)NC3(CC(C)(C)C3)C(=O)N(C)[C@@H](C3CCCC3)C(=O)N(C)[C@H](C(=O)N(CC)CC)CC(=O)N(C)[C@@H](CC)C(=O)N[C@@H]([C@@H](C)CC)C(=O)N(C)CC(=O)N(C)[C@H]3C/C=C\CCN(C3=O)[C@@H](Cc3ccc(C)cc3)C(=O)N(C)CC(=O)N[C@@H](CCc3ccc(C(F)(F)F)c(OC)c3)C(=O)N2C1 [PP1881]	A (a compound having 10 or more and less than 20 is denoted as A)	A (a compound having 10 or more and less than 20 is denoted as A)
18.3 nM	CC[C@H](C)[C@@H]1NC(=O)[C@H](CC(C)C)N(C)C(=O)C[C@@H](C(=O)N(CC)CC)N(C)C(=O)[C@H](C2CCCC2)N(C)C(=O)C2(CCC2)NC(=O)[C@@H]2C[C@H](C)CN2C(=O)[C@H](CCc2ccc(C(F)(F)F)c(OC)c2)NC(=O)CN(C)C(=O)[C@H](Cc2ccc(C)cc2)N2CC/C=C\C[C@@H](C2=O)N(C)C(=O)CN(C)C1=O [PP1885]	AA (a compound having 20 or more is denoted as AA)	A (a compound having 10 or more and less than 20 is denoted as A)

From EP4603105A1, “PHARMACEUTICAL COMPOSITION CONTAINING CYCLIC COMPOUND HAVING SELECTIVE KRAS INHIBITORY EFFECT AGAINST HRAS AND NRAS” (CHUGAI SEIYAKU KABUSHIKI KAISHA, priority 2022, dated 2024)
